Measured values reported in the supplement of paper PMC10307832.

Tests used:
Assay in all cases: relative viability (nuclei count vs DMSO), 5 days (fraction); higher = more cells survive
[1] = compound: COc1cc2ncn(-c3cc(OCc4ccccc4C(F)(F)F)c(C(N)=O)s3)c2cc1OC + COc1cc2c(Oc3ccc(NC(=O)C4(C(=O)Nc5ccc(F)cc5)CC4)cc3F)ccnc2cc1OCCCN1CCOCC1 [Foretinib] (partner 0.25 µM)
How it was run: (§1)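 Five library-drug doses in √10 steps were combined with a fixed anchor-drug dose, or a single drug was given alone, by pin tool to lung cancer cell lines in 1536-well plates the day after seeding. Nuclei were stained and counted after 5 days. Relative viability is the nuclei count in treated wells over that in vehicle wells, taken as the median of duplicate plates.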

[2] = compound: COc1cc2ncn(-c3cc(OCc4ccccc4C(F)(F)F)c(C(N)=O)s3)c2cc1OC + C[C@]1(O)C[C@@H](c2nc(-c3ccc4ccc(-c5ccccc5)nc4c3)c3c(N)nccn32)C1 [Linsitinib] (partner 1 µM)
How it was run: as §1

[3] = compound: COc1cc2ncn(-c3cc(OCc4ccccc4C(F)(F)F)c(C(N)=O)s3)c2cc1OC + CC1(C)CCC(c2ccc(Cl)cc2)=C(CN2CCN(c3ccc(C(=O)NS(=O)(=O)c4ccc(N[C@H](CCN5CCOCC5)CSc5ccccc5)c(S(=O)(=O)C(F)(F)F)c4)cc3)CC2)C1 [Navitoclax] (partner 0.5 µM)
How it was run: as §1

[4] = compound: COc1cc2ncn(-c3cc(OCc4ccccc4C(F)(F)F)c(C(N)=O)s3)c2cc1OC + CCNC(=O)c1noc(-c2cc(C(C)C)c(O)cc2O)c1-c1ccc(CN2CCOCC2)cc1 [Luminespib] (partner 0.01 µM)
How it was run: as §1

| Cell Line | relative viability ([1]; first compound 0.05 µM) | relative viability ([1]; first compound 0.1581 µM) | relative viability ([1]; first compound 0.5 µM) | relative viability ([1]; first compound 1.581 µM) | relative viability ([1]; first compound 5 µM) | relative viability ([2]; first compound 0.05 µM) | relative viability ([2]; first compound 0.1581 µM) | relative viability ([2]; first compound 0.5 µM) | relative viability ([2]; first compound 1.581 µM) | relative viability ([2]; first compound 5 µM) | relative viability ([3]; first compound 0.05 µM) | relative viability ([3]; first compound 0.1581 µM) | relative viability ([3]; first compound 0.5 µM) | relative viability ([3]; first compound 1.581 µM) | relative viability ([3]; first compound 5 µM) | relative viability ([4]; first compound 0.05 µM) | relative viability ([4]; first compound 0.1581 µM) | relative viability ([4]; first compound 0.5 µM) | relative viability ([4]; first compound 1.581 µM) | relative viability ([4]; first compound 5 µM) |
| --- | --- | --- | --- | --- | --- | --- | --- | --- | --- | --- | --- | --- | --- | --- | --- | --- | --- | --- | --- | --- |
| PC-3 [JPC-3] | 0.96 | 0.992 | 0.402 | 0.238 | 0.233 | 0.91 | 0.945 | 0.744 | 0.309 | 0.286 | 0.757 | 0.715 | 0.471 | 0.27 | 0.238 | 0.66 | 0.712 | 0.486 | 0.221 | 0.19 |
| PC-14 | 0.934 | 0.929 | 0.784 | – | 0.629 | 1.05 | 0.906 | 0.463 | – | 0.106 | 1.03 | 0.97 | 0.407 | 0.151 | 0.273 | 0.15 | 0.303 | 0.189 | 0.159 | 0.133 |
| RERF-LC-KJ | 0.957 | 0.901 | 0.791 | – | 0.625 | 0.806 | 0.901 | 0.559 | – | 0.357 | 0.993 | 0.874 | 0.416 | 0.23 | 0.414 | 1.31 | 1.24 | 0.373 | 0.306 | 0.268 |
| SK-LU-1 | 0.811 | 0.765 | 0.32 | 0.219 | 0.206 | 1.28 | 1.01 | 0.395 | 0.399 | 0.295 | 0.641 | 0.56 | 0.794 | 0.123 | 0.113 | 0.223 | 0.238 | 0.203 | 0.217 | 0.193 |
| SK-MES-1 | 0.892 | 0.877 | 0.518 | – | 0.667 | 1.03 | 1.01 | 0.745 | – | 0.362 | 1.14 | 1.25 | 0.519 | 0.119 | 0.127 | 0.725 | 0.83 | 0.266 | 0.167 | 0.182 |
| SW 1573 | 0.927 | 0.94 | 0.825 | 0.157 | 0.567 | 0.733 | 0.869 | 0.514 | 0.173 | 0.275 | 1.06 | 1.09 | 0.466 | 0.115 | 0.0609 | 0.547 | 0.337 | 0.12 | 0.091 | 0.154 |
| UMC-11 | 0.893 | 0.836 | 0.156 | 0.18 | 0.145 | 0.962 | 0.912 | 0.274 | 0.152 | 0.136 | 0.312 | 0.269 | 0.113 | 0.0962 | 0.094 | 0.974 | 0.722 | 0.128 | 0.161 | 0.145 |
